Assay results taken from PubChem BioAssay AID2060893 (Molecular Pharmacology Branch, DTP, NCI, 2025).
Several values for one entry are separate records, joined by “and”; a condition that tells them apart may be missing. Equal values may be shown once.

Tested on: K86415-001-R-J1-PDC complex spheroids, viability
Assay: Anticancer human tumor K86415-001-R-J1-PDC patient-derived lung adenocarcinoma cell line growth inhibition [RAS]
Details: for viability, T/C: stronger effect = lower value
Text: RAS pathway inhibitors in Combinations in Complex Spheroids
A high-throughput screen of multi-cell type tumor spheroids was designed to identify active combinations of RAS pathway inhibitors and targeted small molecules. Complex spheroids include a stromal component modeled by human endothelial cells (HUVEC) and fibroblasts modeled by human mesenchymal stem cells (MSCs). The concentration ranges selected for each drug and investigational agent were based upon clinically achievable concentrations if the clinical Cmax of the agent was known.
Compounds. The drugs and investigational agents: abemaciclib (NSC768073), cobimetinib (NSC768068), divarasib (GDC6063, NSC841802), docetaxel (NSC628503), GDC-1971 (RLY-1971, NSC841576), gemcitabine (NSC613327), inavolisib (NSC800729), ipatasertib (NSC767898), KB-0742 (NSC834161), MRTX-1133 (NSC836407), osimertinib (NSC779217), RMC-4630 (NSC839698), RMC-6236 (NSC851965), RMC-6291 (NSC852671), Ro-3306 (NSC812927), sapanisertib (NSC764658), SN-38 (NSC673596), staurosporine (NSC755774), SY5609 (NSC837396), and tovorafenib (DAY101, NSC766906), were obtained from the National Cancer Institute (NCI) Developmental Therapeutics Program Chemical Repository. The FDA-approved anticancer drug set is available from the NCI Developmental Therapeutics Program. […] The stock solutions were prepared in dimethyl sulfoxide (DMSO, Sigma-Aldrich, St. Louis, MO, cat. D2650) at 800-fold the tested concentration and stored at -70 degrees C prior to their use. All drugs and investigational agents were tested over a range starting from a high concentration at or near the clinical Cmax and decreasing in half-log increments. If the clinical Cmax for an agent had not been determined, the highest concentration tested was 10 microM.
Cell Culture. All cells were maintained in an incubator at 37 degrees C and 5% CO2 with 95% humidity. The PDC lines were cultured according to standard operating procedures established by the NCI PDMR. All PDCs were thawed and cultured in Matrigel-coated flasks prepared with a working solution of 1X Ham's F-12 nutrient mix, without supplementation (Invitrogen, Waltham, MA, cat. 11765054), 100 U/mL penicillin-streptomycin (Invitrogen, cat. 15140122), and 2.5% Matrigel (Corning Inc., Corning, NY, cat. 354248) for the first three passages. The 362531-283-R-J2-PDC and 782815-120-R-J1-PDC lines were cultured in 6C/Colon 1B media, which includes advanced DMEM/F-12 (Thermo Fisher Scientific, cat. 12634028), 10 mM HEPES (Thermo Fisher Scientific, cat. 15630080), 1X GlutaMAX supplement (Thermo Fisher Scientific, cat. 35050061), 0.1 mg/mL primocin (InvivoGen, San Diego, CA, cat. ant-pm-2), 10% defined fetal bovine serum, heat inactivated (HyClone Laboratories Inc., Logan, UT, cat. SH30070.03HI), 50% L-WRN conditioned media (ATCC, cat. CRL-3276), 1.25 mM N-Acetyl-L-cysteine (Sigma-Aldrich, cat. A9165), 10 mM nicotinamide (Sigma-Aldrich, cat. N0636), 1X B-27 supplement (Thermo Fisher Scientific, cat. 17504044), 1X N-2 supplement (Thermo Fisher Scientific, cat. 17502048), 50 ng/mL human EGF (Thermo Fisher Scientific, cat. PHG0311), and 10 microM Y-27632 dihydrochloride (Tocris Bioscience, cat. 1254). The K12877-001-R-J1-PDC line was cultured in 6I media, which includes all 6C/Colon 1B media plus 10 ng/mL human FGF-10 (PeproTech, cat. 100-26), 1 ng/mL human FGF-2 (PeproTech, cat. 100-18B), 1 µM prostaglandin E2 (Tocris Bioscience, cat. 2296), […] hydrocortisone (Sigma-Aldrich, cat. H4001), and […] bovine insulin (Sigma-Aldrich, cat. I6634). The K86415-001-R-J1-PDC line was cultured in 6D media, which includes all 6C/Colon 1B media components minus the L-WRN conditioned media. The 485176-168-R4-J1-PDC was cultured in PANC media, which includes all 6C/Colon 1B media plus 100 ng/mL human FGF-10 (PeproTech, cat. 100-26), 500 nM SB-431542 (Selleckchem, cat. S1067), and 10 nM gastrin (Tocris Bioscience, cat. 3006). […]
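Also: spheroids exposed to agents for seven days before readout.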

## Cc1nc(N2CCC3(CC2)COC(C)C3N)c(CO)nc1Sc1ccnc(N)c1Cl (centres undefined) + CCn1c(-c2cccnc2C(C)OC)c2c3cc(ccc31)N1CCOC(CC(NC(=O)C(C(C)C)N(C)C(=O)C3(F)CCN(C(=O)C#CC(C)(C)N(C)C)CC3)C(=O)N3CCCC(N3)C(=O)OCC(C)(C)C2)C1
Curve of first compound, second compound 0.000949 µM
  IC50: < 31.6 nM
Curve of first compound, second compound 0.003 µM
  IC50: < 31.6 nM
Curve of first compound, second compound 0.00949 µM
  IC50: < 31.6 nM
Curve of first compound, second compound 0.03 µM
  IC50: < 31.6 nM
Curve of first compound, second compound 0.0949 µM
  IC50: < 31.6 nM
Curve of first compound, second compound 0.3 µM
  IC50: < 31.6 nM
Second compound 0.000949 µM, first compound 0.0316 µM
  viability, T/C: 29.3%
Second compound 0.000949 µM, first compound 0.1 µM
  viability, T/C: 16.5%
Second compound 0.000949 µM, first compound 0.316 µM
  viability, T/C: 7.93%
Second compound 0.000949 µM, first compound 1 µM
  viability, T/C: 9.19%
Second compound 0.000949 µM, first compound 3.16 µM
  viability, T/C: 6.66%
Second compound 0.000949 µM, first compound 10 µM
  viability, T/C: 4.12%
Second compound 0.003 µM, first compound 0.0316 µM
  viability, T/C: 8.24%
Second compound 0.003 µM, first compound 0.1 µM
  viability, T/C: 6.74%
Second compound 0.003 µM, first compound 0.316 µM
  viability, T/C: 5.5%
Second compound 0.003 µM, first compound 1 µM
  viability, T/C: 7.84%
Second compound 0.003 µM, first compound 3.16 µM
  viability, T/C: 3.89%
Second compound 0.003 µM, first compound 10 µM
  viability, T/C: 3.06%
Second compound 0.00949 µM, first compound 0.0316 µM
  viability, T/C: 7.59%
Second compound 0.00949 µM, first compound 0.1 µM
  viability, T/C: 5.87%
Second compound 0.00949 µM, first compound 0.316 µM
  viability, T/C: 5.22%
Second compound 0.00949 µM, first compound 1 µM
  viability, T/C: 4.38%
Second compound 0.00949 µM, first compound 3.16 µM
  viability, T/C: 3.17%
Second compound 0.00949 µM, first compound 10 µM
  viability, T/C: 3.06%
Second compound 0.03 µM, first compound 0.0316 µM
  viability, T/C: 10.5%
Second compound 0.03 µM, first compound 0.1 µM
  viability, T/C: 6.71%
Second compound 0.03 µM, first compound 0.316 µM
  viability, T/C: 5.16%
Second compound 0.03 µM, first compound 1 µM
  viability, T/C: 4.22%
Second compound 0.03 µM, first compound 3.16 µM
  viability, T/C: 3.35%
Second compound 0.03 µM, first compound 10 µM
  viability, T/C: 3.62%
Second compound 0.0949 µM, first compound 0.0316 µM
  viability, T/C: 9.27%
Second compound 0.0949 µM, first compound 0.1 µM
  viability, T/C: 6.46%
Second compound 0.0949 µM, first compound 0.316 µM
  viability, T/C: 4.18%
Second compound 0.0949 µM, first compound 1 µM
  viability, T/C: 4.43%
Second compound 0.0949 µM, first compound 3.16 µM
  viability, T/C: 3.06%
Second compound 0.0949 µM, first compound 10 µM
  viability, T/C: 2.77%
Second compound 0.3 µM, first compound 0.0316 µM
  viability, T/C: 8.31%
Second compound 0.3 µM, first compound 0.1 µM
  viability, T/C: 6.71%
Second compound 0.3 µM, first compound 0.316 µM
  viability, T/C: 5.12%
Second compound 0.3 µM, first compound 1 µM
  viability, T/C: 4.01%
Second compound 0.3 µM, first compound 3.16 µM
  viability, T/C: 3.5%
Second compound 0.3 µM, first compound 10 µM
  viability, T/C: 2.86%

## C[C@@H](NC(=O)c1ncnc(N)c1Cl)c1ncc(C(=O)Nc2cc(C(F)(F)F)c(Cl)cn2)s1
Compound 0.0316 µM
  viability, T/C: 113% [middle of 4 runs]
Compound 0.1 µM
  viability, T/C: 113% [middle of 4 runs]
Compound 0.316 µM
  viability, T/C: 97.1% and 109% (2×) and 92.8%
Compound 1 µM
  viability, T/C: 87.8% [middle of 4 runs]
Compound 3.16 µM
  viability, T/C: 77.2% [middle of 4 runs]
Compound 10 µM
  viability, T/C: 64.7% [middle of 4 runs]
Curve of compound
  IC50: > 10000 nM
